Settings: for surface tension liquid-gas: Drop volume; for mass density / kinematic viscosity / speed of sound / vapor or sublimation pressure: Liquid; for mass density: Vibrating tube method; for kinematic viscosity / speed of sound: 101.33 kPa; for kinematic viscosity: Capillary tube (Ostwald / Ubbelohde) method; for speed of sound: Sing-around technique in a fixed-path interferometer; for vapor or sublimation pressure: Ebulliometric method (Recirculating still)

Cc1ccc(C)o1 [2,5-dimethylfuran]
Settings	kinematic viscosity [m2/s]	speed of sound [m/s]	surface tension liquid-gas [mN/m]	vapor or sublimation pressure [kPa]
278.15 K	6.7e-07	1281.9	27.5	–
280.65 K	6.5e-07	1271.1	27.19	–
283.15 K	6.34e-07	1260.2	26.86	–
283.16 K	–	–	–	3.015
285.65 K	6.12e-07	1249.2	26.57	–
288.15 K	5.95e-07	1238.3	26.22	–
288.36 K	–	–	–	4.037
290.65 K	5.79e-07	1227.5	25.91	4.575
293.15 K	5.63e-07	1216.5	25.54	–
293.16 K	–	–	–	5.195
295.65 K	5.48e-07	1206.3	25.3	–
298.15 K	5.34e-07	1194.9	25	–
298.25 K	–	–	–	6.75
300.65 K	5.2e-07	1185	24.67	–
302.52 K	–	–	–	8.37
303.15 K	5.04e-07	1173.3	24.33	–
305.65 K	4.95e-07	1163.8	24.02	–
308.15 K	4.83e-07	1151.9	23.7	–
309.17 K	–	–	–	11.59
310.65 K	4.71e-07	1142.5	23.34	–
313.15 K	4.57e-07	1130.7	23.01	–
314.61 K	–	–	–	14.8
315.65 K	4.5e-07	1121.2	22.7	–
318.15 K	4.4e-07	1109.5	22.29	–
319.27 K	–	–	–	18.09
320.65 K	4.3e-07	1100	21.97	–
323.15 K	4.23e-07	1088.5	21.69	–
324.99 K	–	–	–	22.86
325.65 K	4.12e-07	1078.7	21.29	–
328.09 K	–	–	–	26.07
328.15 K	4.03e-07	1067.6	20.95	–
330.65 K	3.95e-07	1057.5	20.58	–
332.43 K	–	–	–	30.95
333.15 K	3.89e-07	1046.9	20.34	–
335.48 K	–	–	–	34.85
335.65 K	3.8e-07	1036.2	20.01	–
338.15 K	3.72e-07	1029.2	19.65	–
338.4 K	–	–	–	38.81
340.95 K	–	–	–	42.52
343.11 K	–	–	–	46.09
345.85 K	–	–	–	50.77
348.13 K	–	–	–	55.05
350.87 K	–	–	–	60.51
352.82 K	–	–	–	64.61
354.3 K	–	–	–	68.12
356.1 K	–	–	–	72.15
357.87 K	–	–	–	76.61
359.42 K	–	–	–	80.63
361.09 K	–	–	–	85.02
362.46 K	–	–	–	88.86
363.39 K	–	–	–	91.39
364.36 K	–	–	–	94.28
365.26 K	–	–	–	97.05
366.7 K	–	–	–	101.33

Settings	mass density [kg/m3]
278.15 K, 99 kPa	917.53
280.65 K, 99 kPa	914.899
283.15 K, 99 kPa	912.247
283.15 K, 100 kPa	912.25
283.15 K, 2500 kPa	914.37
283.15 K, 5000 kPa	916.47
283.15 K, 7500 kPa	918.52
283.15 K, 10000 kPa	920.53
283.15 K, 20000 kPa	928.2
283.15 K, 30000 kPa	935.24
283.15 K, 40000 kPa	941.89
283.15 K, 50000 kPa	948.12
283.15 K, 60000 kPa	953.98
285.65 K, 99 kPa	909.614
288.15 K, 99 kPa	906.988
288.15 K, 100 kPa	906.99
288.15 K, 2500 kPa	909.13
288.15 K, 5000 kPa	911.29
288.15 K, 7500 kPa	913.42
288.15 K, 10000 kPa	915.49
288.15 K, 20000 kPa	923.34
288.15 K, 30000 kPa	930.62
288.15 K, 40000 kPa	937.41
288.15 K, 50000 kPa	943.72
288.15 K, 60000 kPa	949.78
290.65 K, 99 kPa	904.299
293.15 K, 99 kPa	901.636
293.15 K, 100 kPa	901.64
293.15 K, 2500 kPa	903.82
293.15 K, 5000 kPa	906.07
293.15 K, 7500 kPa	908.26
293.15 K, 10000 kPa	910.4
293.15 K, 20000 kPa	918.5
293.15 K, 30000 kPa	925.97
293.15 K, 40000 kPa	932.94
293.15 K, 50000 kPa	939.57
293.15 K, 60000 kPa	945.6
295.65 K, 99 kPa	898.951
298.15 K, 99 kPa	896.285
298.15 K, 100 kPa	896.29
298.15 K, 2500 kPa	898.6
298.15 K, 5000 kPa	900.94
298.15 K, 7500 kPa	903.16
298.15 K, 10000 kPa	905.39
298.15 K, 20000 kPa	913.73
298.15 K, 30000 kPa	921.4
298.15 K, 40000 kPa	928.44
298.15 K, 50000 kPa	935.19
298.15 K, 60000 kPa	941.44
300.65 K, 99 kPa	893.569
303.15 K, 99 kPa	890.898
303.15 K, 100 kPa	890.9
303.15 K, 2500 kPa	893.25
303.15 K, 5000 kPa	895.65
303.15 K, 7500 kPa	897.97
303.15 K, 10000 kPa	900.25
303.15 K, 20000 kPa	908.83
303.15 K, 30000 kPa	916.74
303.15 K, 40000 kPa	924.06
303.15 K, 50000 kPa	930.89
303.15 K, 60000 kPa	937.27
305.65 K, 99 kPa	888.151
308.15 K, 99 kPa	885.447
308.15 K, 100 kPa	885.45
308.15 K, 2500 kPa	887.9
308.15 K, 5000 kPa	890.36
308.15 K, 7500 kPa	892.78
308.15 K, 10000 kPa	895.14
308.15 K, 20000 kPa	903.98
308.15 K, 30000 kPa	912.1
308.15 K, 40000 kPa	919.56
308.15 K, 50000 kPa	926.54
308.15 K, 60000 kPa	933.08
310.65 K, 99 kPa	882.693
313.15 K, 99 kPa	879.927
313.15 K, 100 kPa	879.93
313.15 K, 2500 kPa	882.45
313.15 K, 5000 kPa	885.02
313.15 K, 7500 kPa	887.51
313.15 K, 10000 kPa	889.95
313.15 K, 20000 kPa	899.05
313.15 K, 30000 kPa	907.41
313.15 K, 40000 kPa	915.12
313.15 K, 50000 kPa	922.3
313.15 K, 60000 kPa	928.9
315.65 K, 99 kPa	877.195
318.15 K, 99 kPa	874.437
318.15 K, 100 kPa	874.44
318.15 K, 2500 kPa	877.03
318.15 K, 5000 kPa	879.68
318.15 K, 7500 kPa	882.27
318.15 K, 10000 kPa	884.79
318.15 K, 20000 kPa	894.18
318.15 K, 30000 kPa	902.74
318.15 K, 40000 kPa	910.6
318.15 K, 50000 kPa	917.91
318.15 K, 60000 kPa	924.74
320.65 K, 99 kPa	871.651
323.15 K, 99 kPa	868.85
323.15 K, 100 kPa	868.85
323.15 K, 2500 kPa	871.55
323.15 K, 5000 kPa	874.3
323.15 K, 7500 kPa	876.94
323.15 K, 10000 kPa	879.54
323.15 K, 20000 kPa	889.25
323.15 K, 30000 kPa	898.07
323.15 K, 40000 kPa	906.13
323.15 K, 50000 kPa	913.67
323.15 K, 60000 kPa	920.58
325.65 K, 99 kPa	866.06
328.15 K, 99 kPa	863.248
328.15 K, 100 kPa	863.25
328.15 K, 2500 kPa	866.05
328.15 K, 5000 kPa	868.91
328.15 K, 7500 kPa	871.68
328.15 K, 10000 kPa	874.38
328.15 K, 20000 kPa	884.36
328.15 K, 30000 kPa	893.38
328.15 K, 40000 kPa	901.61
328.15 K, 50000 kPa	909.29
328.15 K, 60000 kPa	916.43
330.65 K, 99 kPa	860.418
333.15 K, 99 kPa	857.577
333.15 K, 100 kPa	857.58
333.15 K, 2500 kPa	860.47
333.15 K, 5000 kPa	863.42
333.15 K, 7500 kPa	866.28
333.15 K, 10000 kPa	869.07
333.15 K, 20000 kPa	879.4
333.15 K, 30000 kPa	888.7
333.15 K, 40000 kPa	897.22
333.15 K, 50000 kPa	905.17
333.15 K, 60000 kPa	912.4
335.65 K, 99 kPa	854.721
338.15 K, 99 kPa	851.85
338.15 K, 100 kPa	851.85
338.15 K, 2500 kPa	854.88
338.15 K, 5000 kPa	857.96
338.15 K, 7500 kPa	860.93
338.15 K, 10000 kPa	863.81
338.15 K, 20000 kPa	874.45
338.15 K, 30000 kPa	884.02
338.15 K, 40000 kPa	892.61
338.15 K, 50000 kPa	900.74
338.15 K, 60000 kPa	908.17

Source: the NIST ThermoML archive (doi:10.1016/j.tca.2015.08.013)
